Results from patent US12383520B2, “Compound and composition for use in the treatment of premenstrual syndrome and/or premenstrual dysphoric disorder” (SYNAPHARM […], priority 2019, dated 2025).

Legend:
[1] = treatment of premenstrual syndrome and/or premenstrual dysphoric disorder (reduction of symptoms); format: in vivo; details: compared with other compounds, particularly other magnesium salts (like magnesium oxide)
[2] = stability over time of dihydrate versus anhydrous form; format: physicochemical; details: compared to non-dihydrate (anhydrous) magnesium N-acetyl-taurinate

With magnesium N-acetyl-taurinate the “effectiveness (reduction of symptoms) in the treatment of premenstrual syndrome and/or premenstrual dysphoric disorder” value [1] was “more effective (reduction of symptoms) than the other compounds”.
With magnesium N-acetyl-taurinate dihydrate the stability over time [2] was “increased as compared to non-dihydrate magnesium N-acetyl-taurinate”.
